Activity calls are given as the source filed them. The rule behind the calls is not given here.
Test system: rodent carcinogenicity bioassays, tumor incidence
Test: CCRIS carcinogenicity studies
Summary of the method: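 NCI-built, expert-reviewed records of carcinogenicity and related test outcomes (mutagenicity, tumor promotion/inhibition) compiled from published and report sources, historical span 1985-2011, not updated.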

Which carcinogen call (Species: MOUSE, Strain/Sex: B6C3F1/FEMALE, Route: ORAL, Dose: 0, 2% IN DIET FOR 96 WK (STUDY DURATION: 96 WK), Tumor Site: Type of Lesion: KIDNEY (TUBULAR CELL): ADENOMA) does the source give for `O=C(O)/C=C/c1ccc(O)c(O)c1` here?
Its carcinogen call is “active; positive”.

What about the carcinogen call (Species: MOUSE, Strain/Sex: B6C3F1/FEMALE, Route: ORAL, Dose: 0, 2% IN POWDERED BASAL DIET FOR 96 WK (STUDY DURATION: 96 WK)) of the same molecule?
Its carcinogen call is “inactive; negative”.

What about the carcinogen call (Species: MOUSE, Strain/Sex: B6C3F1/MALE, Route: ORAL, Dose: 0, 2% IN DIET FOR 96 WK (STUDY DURATION: 96 WK), Tumor Site: Type of Lesion: LUNG (ALVEOLAR CELL): ADENOMA OR ADENOCARCINOMA) of the same molecule?
Its carcinogen call is “active; positive”.

What about the carcinogen call (Species: MOUSE, Strain/Sex: B6C3F1/MALE, Route: ORAL, Dose: 0, 2% IN POWDERED BASAL DIET FOR 96 WK (STUDY DURATION: 96 WK)) of the same molecule?
The carcinogen call was “inactive; negative”.

And the carcinogen call (Species: RAT, Strain/Sex: F344/FEMALE, Route: ORAL, Dose: 0, 2% IN DIET FOR 104 WK (STUDY DURATION: 104 WK), Tumor Site: Type of Lesion: FORESTOMACH: PAPILLOMA, CARCINOMA)?
Its carcinogen call is “active; positive”.

What about the carcinogen call (Species: RAT, Strain/Sex: F344/FEMALE, Route: ORAL, Dose: 0, 2% IN DIET FOR 104 WK (STUDY DURATION: 104 WK), Tumor Site: Type of Lesion: FORESTOMACH: SQUAMOUS CELL CARCINOMA) of the same molecule?
Its carcinogen call is “active; positive”.

And the carcinogen call (Species: RAT, Strain/Sex: F344/FEMALE, Route: ORAL, Dose: 0, 2% IN POWDERED BASAL DIET FOR 104 WK (STUDY DURATION: 104 WK), Tumor Site: Type of Lesion: FORESTOMACH: PAPILLOMA, SQUAMOUS CELL CARCINOMA)?
The carcinogen call was “active; positive”.

And the carcinogen call (Species: RAT, Strain/Sex: F344/MALE, Route: ORAL, Dose: 0, 0.4% IN DIET FOR DURATION OF STUDY (STUDY DURATION: 104 WK), Tumor Site: Type of Lesion: FORESTOMACH: PAPILLOMA)?
Its carcinogen call is “active; positive”.

What about the carcinogen call (Species: RAT, Strain/Sex: F344/MALE, Route: ORAL, Dose: 0, 2% IN DIET FOR 104 WK (STUDY DURATION: 104 WK), Tumor Site: Type of Lesion: FORESTOMACH: PAPILLOMA, CARCINOMA) of the same molecule?
The carcinogen call was “active; positive”.

And the carcinogen call (Species: RAT, Strain/Sex: F344/MALE, Route: ORAL, Dose: 0, 2% IN DIET FOR 104 WK (STUDY DURATION: 104 WK), Tumor Site: Type of Lesion: FORESTOMACH: SQUAMOUS CELL CARCINOMA)?
The carcinogen call was “active; positive”.

What about the carcinogen call (Species: RAT, Strain/Sex: F344/MALE, Route: ORAL, Dose: 0, 2% IN POWDERED BASAL DIET FOR 104 WK (STUDY DURATION: 104 WK), Tumor Site: Type of Lesion: FORESTOMACH: PAPILLOMA, SQUAMOUS CELL CARCINOMA) of the same molecule?
The carcinogen call was “active; positive”.

What about the carcinogen call (Species: RAT, Strain/Sex: F344/MALE, Route: ORAL, Dose: 2% IN THE DIET FOR 104 WK (STUDY DURATION: 104 WK), Tumor Site: Type of Lesion: FORESTOMACH: PAPILLOMA, SQUAMOUS CELL CARCINOMA) of the same molecule?
The carcinogen call was “active; positive”.

How did the carcinogen call (Species: MOUSE, Strain/Sex: B6C3F1/FEMALE, Route: ORAL, Dose: 0, 0.004, 0.04% TWA, IN DIET FOR 78 WK (STUDY DURATION: 95-96 WK), Dose: 0, 0.004, 0.04% TWA, IN DIET FOR 78 WK (STUDY DURATION: 95-96 WK), Tumor Site: Type of Lesion: LIVER: HEPATOCELLULAR ADENOMA OR CARCINOMA) turn out when `c1ccc(NNc2ccccc2)cc1` was run?
Its carcinogen call is “active; positive”.

And the carcinogen call (Species: MOUSE, Strain/Sex: B6C3F1/MALE, Route: ORAL, Dose: 0, 0.008, 0.04% TWA, IN DIET FOR 78 WK (STUDY DURATION: 85 WK), Dose: 0, 0.008, 0.04% TWA, IN DIET FOR 78 WK (STUDY DURATION: 85 WK))?
Its carcinogen call is “inactive; negative”.

And the carcinogen call (Species: RAT, Strain/Sex: F344/FEMALE, Route: ORAL, Dose: 0, 0.004, 0.01% TWA, IN DIET FOR 78 WK (STUDY DURATION: 107-108 WK), Dose: 0, 0.004, 0.01% TWA, IN DIET FOR 78 WK (STUDY DURATION: 107-108 WK), Tumor Site: Type of Lesion: LIVER: NEOPLASTIC NODULE)?
The carcinogen call was “active; positive”.

What about the carcinogen call (Species: RAT, Strain/Sex: F344/MALE, Route: ORAL, Dose: 0, 0.008, 0.03% TWA, IN DIET FOR 78 WK (STUDY DURATION: 106-107 WK), Dose: 0, 0.008, 0.03% TWA, IN DIET FOR 78 WK (STUDY DURATION: 106-107 WK), Tumor Site: Type of Lesion: LIVER: NEOPLASTIC NODULE OR HEPATOCELLULAR CARCINOMA, ADRENAL GLAND: PHEOCHROMOCYTOMA OR MALIGNANT PHEOCHROMOCYTOMA, EAR, Tumor Site: Type of Lesion: LIVER: NEOPLASTIC NODULE OR HEPATOCELLULAR CARCINOMA, ADRENAL GLAND: PHEOCHROMOCYTOMA OR MALIGNANT PHEOCHROMOCYTOMA, EAR) of the same molecule?
Its carcinogen call is “active; positive”.

For `O=C1c2cccc(O)c2C(=O)c2c(O)cccc21`, which carcinogen call (Species: MOUSE, Strain/Sex: C3H/HEN/MALE, Route: ORAL, Dose: 0, 0.2% IN DIET FOR DURATION OF STUDY (STUDY DURATION: 540 D), Tumor Site: Type of Lesion: LIVER: HEPATOCELLULAR CARCINOMA) is on record?
Its carcinogen call is “active; positive”.

What about the carcinogen call (Species: RAT, Strain/Sex: ACI/MALE, Route: ORAL, Dose: 0, 1% IN DIET FOR DURATION OF STUDY (STUDY DURATION: 16 MO), Tumor Site: Type of Lesion: INTESTINE: ADENOMA OR CARCINOMA) of the same molecule?
The carcinogen call was “active; positive”.

For `CC1CN(N=O)CC(C)N1` (configuration not stated), which carcinogen call (Species: RAT, Strain/Sex: F344/FEMALE, Route: ORAL, Dose: 0, 100 MG/L IN DRINKING WATER 5 D/WK FOR 29 WK, STUDY DURATION: 40-50 WK, Dose: 0, 100 MG/L IN DRINKING WATER 5 D/WK FOR 29 WK, STUDY DURATION: 40-50 WK, Tumor Site: Type of Lesion: THYMUS GLAND: LYMPHOMA OR LEUKEMIA, MULTIPLE SITES: LYMPHOMA OR LEUKEMIA) is on record?
The carcinogen call was “active; positive”.

How did the carcinogen call (Species: RAT, Strain/Sex: HOLTZMAN/FEMALE, Route: ORAL, Dose: 0, 0.0038% IN DIET FOR 13 WK BEGINNING AT WEANING (STUDY DURATION: 40 WK), Tumor Site: Type of Lesion: EAR DUCT GLAND: CARCINOMA) turn out when `Nc1ccc(/C=C/c2ccccc2)cc1` was run?
The carcinogen call was “active; positive”.

What about the carcinogen call (Species: RAT, Strain/Sex: HOLTZMAN/FEMALE, Route: SUBCUTANEOUS, Dose: 0. 5.3 UMOL SUSPENDED IN 0.2 ML TRICAPRYLIN 1/WK FOR 5 WK (STUDY DURATION: 10 MO), Tumor Site: Type of Lesion: MAMMARY GLAND: CARCINOMA) of the same molecule?
Its carcinogen call is “active; positive”.

Which carcinogen call (Species: MOUSE, Strain/Sex: B6C3F1/FEMALE, Route: GAVAGE, Dose: 0, 12500, 25000 PPM IN FEED FOR 103 WK (STUDY DURATION: 104 WK), Dose: 0, 12500, 25000 PPM IN FEED FOR 103 WK (STUDY DURATION: 104 WK)) does the source give for `CN(C)[C@@H]1C(=O)C(C(N)=O)=C(O)[C@@]2(O)C(=O)C3=C(O)c4c(O)cccc4[C@@](C)(O)[C@H]3C[C@@H]12` here?
The carcinogen call was “inactive; negative”.

What about the carcinogen call (Species: MOUSE, Strain/Sex: B6C3F1/FEMALE, Route: ORAL, Dose: 0, 12500, 25000 PPM IN DIET FOR 103 WK (STUDY DURATION: 103 WK), Dose: 0, 12500, 25000 PPM IN DIET FOR 103 WK (STUDY DURATION: 103 WK)) of the same molecule?
Its carcinogen call is “inactive; negative”.

What about the carcinogen call (Species: MOUSE, Strain/Sex: B6C3F1/MALE, Route: ORAL, Dose: 0, 12500, 25000 PPM IN DIET FOR 103 WK (STUDY DURATION: 103 WK), Dose: 0, 12500, 25000 PPM IN DIET FOR 103 WK (STUDY DURATION: 103 WK)) of the same molecule?
The carcinogen call was “inactive; negative”.

And the carcinogen call (Species: MOUSE, Strain/Sex: B6C3F1/MALE, Route: ORAL, Dose: 0, 12500, 25000 PPM IN FEED FOR 103 WK (STUDY DURATION: 104 WK), Dose: 0, 12500, 25000 PPM IN FEED FOR 103 WK (STUDY DURATION: 104 WK))?
The carcinogen call was “inactive; negative”.

What about the carcinogen call (Species: RAT, Strain/Sex: F344/FEMALE, Route: ORAL, Dose: 0, 12500, 25000 PPM IN DIET FOR 103 WK (STUDY DURATION: 103 WK), Dose: 0, 12500, 25000 PPM IN DIET FOR 103 WK (STUDY DURATION: 103 WK)) of the same molecule?
The carcinogen call was “inactive; negative”.

And the carcinogen call (Species: RAT, Strain/Sex: F344/FEMALE, Route: ORAL, Dose: 0, 12500, 25000 PPM IN FEED FOR 103 WK (STUDY DURATION: 104 WK), Dose: 0, 12500, 25000 PPM IN FEED FOR 103 WK (STUDY DURATION: 104 WK))?
The carcinogen call was “inactive; negative”.

And the carcinogen call (Species: RAT, Strain/Sex: F344/MALE, Route: ORAL, Dose: 0, 12500, 25000 PPM IN DIET FOR 103 WK (STUDY DURATION: 103 WK), Dose: 0, 12500, 25000 PPM IN DIET FOR 103 WK (STUDY DURATION: 103 WK))?
The carcinogen call was “inactive; negative”.

And the carcinogen call (Species: RAT, Strain/Sex: F344/MALE, Route: ORAL, Dose: 0, 12500, 25000 PPM IN FEED FOR 103 WK (STUDY DURATION: 104 WK), Dose: 0, 12500, 25000 PPM IN FEED FOR 103 WK (STUDY DURATION: 104 WK))?
The carcinogen call was “inactive; negative”.

`O=C(Cn1ccnc1[N+](=O)[O-])NCc1ccccc1` was tested. Which carcinogen call (Species: MOUSE, Strain/Sex: SWISS/FEMALE, Route: INTRAPERITONEAL, Dose: 0, 8 UG/G BW 1/D FOR 30 DAYS (STUDY DURATION: LIFETIME), Tumor Site: Type of Lesion: LYMPHATIC SYSTEM: LYMPHOMA) did it give?
Its carcinogen call is “active; positive”.

And the carcinogen call (Species: MOUSE, Strain/Sex: SWISS/FEMALE, Route: INTRAPERITONEAL, Dose: 0, 8 UG/G BW 1/D FOR 60 DAYS (STUDY DURATION: LIFETIME), Tumor Site: Type of Lesion: LYMPHATIC SYSTEM: LYMPHOMA)?
Its carcinogen call is “active; positive”.

Which carcinogen call (Species: MOUSE, Strain/Sex: ICR/FEMALE, Route: GAVAGE, Dose: 1.0 MG IN 0.1 ML TRIOCTANOIN 1/WK, Tumor Site: Type of Lesion: FORESTOMACH: SQUAMOUS CELL CARCINOMA) does the source give for `C/C=C/Cl` here?
The carcinogen call was “active; positive”.
